According to patent publication US20250345309A1, “IMMUNE HEALTH IMPROVERS” (Amazentis SA, priority 2024, published 2025):

What was measured:
monocytes = experiment: Phagocytosis assay (pHrodo E. coli Red BioParticles); type: in vivo, human; details: ex vivo, d28, 1000 mg/day oral, compared with placebo cohort
Experimental: The pHrodo™ E. coli Red BioParticles® Phagocytosis Kit for Flow Cytometry (Invitrogen) was used to assess phagocytotic capacity of monocytes. The particles were inactivated, unopsonized Escherichia coli (K-12 strain) that enables measurement of phagocytic activity based on acidification of particles as they are ingested. Thawed PBMCs were immediately used for analysis. 25 μL of E. coli Red BioParticles® were added to 0.25×10^6 PBMCs in 225 μl PBMC medium. As a negative control, 20 μL of PBS were added to 225 μl of PBMCs. Incubation was performed at 37° C. for 45 min, followed by immediate transfer on ice. Cells were then washed in FACS buffer, centrifuged at 1500 rpm for 5 min, followed by another wash step. Cells were stained for 10 min at 4° C. After washing, cells were reconstituted in PBS and subjected to analysis using a Cytek Aurora fow cytometer. Monocytes were identified as CD3−, CD16+ cells.

PBMCs [1] = experiment: SCENITH mitochondrial dependency analysis of immune populations; type: in vivo, human; details: d28, 1000 mg/day oral
Experimental: Single cell energetic metabolism by profiling translation inhibition (SCENITH) was used to determine metabolic dependencies of select immune populations, which was performed as described previously (R. J. Argüello et al. Cell metabolism […], 32, 1063-1075). SCENITH reagents kit (inhibitors, puromycin and antibodies) were obtained from www.scenith.com/try-it and used according to the provided protocol. In short, 0.3×10^6 PBMCs were treated for 15 min with Control (DMSO), 2-Deoxy-Glucose (2-DG; 100 mM), Oligomycin (O; 1 μM) and the combination of 2DG and Oligomycin (DGO) or Harringtonine (H; 2 μg/mL). Following metabolic inhibitors, Puromycin (final concentration 10 μg/mL) was added to cultures for 30 min. After puromycin treatment, cells were washed in PBMC was buffer and stained with the following antibodies for 15 min at 4° C.: PE-Cy7 CD4, APC Cy7 CD8, CD45RA AF700, vFkour 450 CD3, CCR7 APC, BV786 CD14 PercP5.5 CD19, PE-CF594 CD16; CD56 BV711, BV510 Viability dye.
Cells were fixed and permeabilized using the Foxp3 intracellular staining kit (Invitrogen eBioscience) for 1 h. Intracellular staining of puromycin and protein targets was performed for 1 h in diluted (10×) permeabilization buffer at 4° C. Finally, data acquisition was performed using the Cytek Aurora flow cytometer. Samples were unmixed using reference controls generated in combination with stained Ultracomp beads (Fisher Scientific, 01-2222-41) using the SpectroFlo Software. The unmixed FCS files were used for data processing and analysis using FlowJo (BD, version 10.8.1). Immune cell populations of interest were gated manually for downstream analysis. gMFI expression values for Puromycin were exported from FlowJo to calculate metabolic dependencies. The following calculations were used:
To further characterize the metabolic profile of immune cells on a single-cell resolution, we employed SCENITH, a flow-cytometry based strategy that uses incorporation of Puromycin to infer metabolic dependencies (see Argüello et al., SCENITH: A flow cytometry-based method to functionally profile energy metabolism with single cell resolution, 2020, Cell Metabolism, 32, 1063-1075).

plasma cytokines = experiment: Plasma cytokine measurements (LEGENDplex); type: in vivo, human; details: d28 vs baseline, 1000 mg/day oral
Experimental: Inflammatory cytokines were measured using LEGENDplex™ HU Essential Immune Response Panel (BioLegend) according to the manufacturer's instructions. Plasma samples were diluted 1:1 in assay diluent as recommended and technical duplicates were used for both the standard curve and experimental samples. Analysis was performed with the provided software.

[2] = Clinical trial adverse event reporting; details: Group A n = 25; 1000 mg/day oral, 28 days
PBMCs [3] = experiment: Spectral flow cytometry immune phenotyping of PBMCs; type: in vivo, human
Experimental: Spectral flow cytometry to broadly analyse immune composition was performed on PBMCs from 25 UA and 25 placebo individuals from the cohort. Flow cytometry staining was performed in three batches, to minimize batch-related effects.
PBMC were thawed and allowed to recover for 3 hours in uncoated cell culture dishes. All samples for any particular donor series were thawed together. For the intracellular panel, cells were stained after recovery with the surface panel, then fixed and permeabilized using the ThermoFisher Foxp3 fix/perm system, followed by staining for intracellular markers. For the surface-only panel, cells were treated with Bafilomycin A1 (0.5 μM) for 45 minutes, followed by 45 minutes incubation with 5-dodecanoylaminofluorescein di-β-D-galactopyranoside (C12FDG) before harvest and surface staining. All cells were analyzed on a Cytek Aurora cytometer. FCS files were exported into FlowJo (BD) for further analysis.
Raw data for all 64 output channels were unmixed using library single-color reference controls for each marker. Spectral compensation for the resulting unmixed data was corrected by manually adjusting a 31×31 matrix of spectral overlaps. Once the data was properly compensated, each individual marker was checked for signal and specificity. The resulting data was then manually gated using a representative sample. The gates are then applied to the other samples in the batch, while spot-checking the gating of the other samples for consistency with the first sample gated.

[4] = 28 days, 1000 mg/day oral, vs placebo
[5] = d28, 1000 mg/day oral, between the two groups
[6] = d28, 1000 mg/day oral, not present after placebo

Which results are given for `O=c1oc2cc(O)ccc2c2ccc(O)cc12` [Urolithin A]?
Monocyte phagocytosis of E. coli particles (monocytes): significantly enhanced; Capacity to shift to OXPHOS when deprived of glycolysis (PBMCs [1]; CD8+ cells): stronger capacity; Dependence on glucose metabolism (PBMCs [1]; CD8+ cells): less dependence; Mitochondrial capacity in CD8+ subsets TN, TEM, TCM, TEEF (PBMCs [1]): potentiation; Mitochondrial capacity in total CD8+ cells (PBMCs [1]): potentiates; Plasma IFN-γ level (plasma cytokines): significantly lower; Plasma IL-1β level (plasma cytokines): significantly lower; Plasma IL-2 level (plasma cytokines): significantly lower; Plasma IL-6 level (plasma cytokines): No difference; Plasma IL-8 level (plasma cytokines): No difference; Plasma IL-10 level (plasma cytokines): significantly lower; Plasma TNF-α level (plasma cytokines): significantly lower; Plasma interferon-gamma induced protein (IP-10) level (plasma cytokines): No difference; Plasma monocyte chemoattractant protein-1 (MCP-1) level (plasma cytokines): No difference; Post-emergent AEs: Infections and Infestations, Covid-19 [2]: 1 (4%) n (%); CD8+ TEMRA (PBMCs [3]; 28 days, 1000 mg/day oral): remained unaffected; CD8+ central memory cells (TCM) (PBMCs [3]; 28 days, 1000 mg/day oral): remained unaffected; CD8+ virtual memory cells (TVM) (PBMCs [3]; 28 days, 1000 mg/day oral): remained unaffected; CD8+ TSCM (PBMCs [3]; 28 days, 1000 mg/day oral, UA vs placebo group): no differences; Proportion of naïve CD8+ T cells (TN) among total PBMCs (PBMCs [3]; 28 days, 1000 mg/day oral, compared to placebo): increased; CD8+ effector memory cells (TEM) (PBMCs [3]; [4]): concomitantly reduced; Percentage of CD4+ T cells among total PBMCs (PBMCs [3]; [4]): no differences; Percentage of CD8+ T cells among total PBMCs (PBMCs [3]; [4]): no differences; Percentage of circulating γδ T cells among total PBMCs (PBMCs [3]; [4]): no differences; Percentage of total αβCD3+ T cells among total PBMCs (PBMCs [3]; [4]): no differences; Nonclassical monocytes (CD14loCD16hi) among total PBMCs (PBMCs [3]; after 28 days, 1000 mg/day oral, compared to placebo): increased; Ki67 in CD8+ cells (PBMCs [3]; after last study visit (d28), 1000 mg/day oral, not present after placebo): more; CD4+ TCM population (PBMCs [3]; d28, 1000 mg/day oral): no difference; CD4+ TEM population (PBMCs [3]; d28, 1000 mg/day oral): no difference; CD4+ TN population (PBMCs [3]; d28, 1000 mg/day oral): no difference; CD4+ TSCM population (PBMCs [3]; d28, 1000 mg/day oral): no difference; CD4+ Th1 cells (T-bet) (PBMCs [3]; d28, 1000 mg/day oral): no changes; CD56dimCD16bright NK cells among total PBMCs (PBMCs [3]; d28, 1000 mg/day oral): markedly expanded; Circulating DCs (PBMCs [3]; d28, 1000 mg/day oral): did not change; Circulating ILCs (PBMCs [3]; d28, 1000 mg/day oral): did not change; Circulating T follicular helper cells (Tfh1, Bcl-6) (PBMCs [3]; d28, 1000 mg/day oral): no changes; FoxP3+ Treg (PBMCs [3]; d28, 1000 mg/day oral): no changes; Gata3+ Th2 cells (PBMCs [3]; d28, 1000 mg/day oral): no changes; NK cell inhibitory receptor KIR expression (PBMCs [3]; d28, 1000 mg/day oral): No change; NK cell inhibitory receptor KLRG1 expression (PBMCs [3]; d28, 1000 mg/day oral): No change; NK cell inhibitory receptor NKG2A expression (PBMCs [3]; d28, 1000 mg/day oral): No change; PD-1 expression in CD8+ cells (PBMCs [3]; d28, 1000 mg/day oral): unaltered; Senescence marker p16 (PBMCs [3]; d28, 1000 mg/day oral): no difference; Senescence marker p21 (PBMCs [3]; d28, 1000 mg/day oral): no difference; Classical monocytes (PBMCs [3]; [5]): did not undergo change; Intermediate monocytes (CD14hiCD16hi) (PBMCs [3]; [5]): did not undergo change; Percentage of plasma cells among PBMCs (PBMCs [3]; [5]): no changes; Percentage of plasmablasts among PBMCs (PBMCs [3]; [5]): no changes; Percentage of total B cells among PBMCs (PBMCs [3]; [5]): no changes; Specific B cell subsets (PBMCs [3]; [5]): no changes; Senescence-associated β-galactosidase (SA-β-GAL) in circulating CD8+ cells (PBMCs [3]; [6]): increased; TOX expression in CD8+ cells (PBMCs [3]; [6]): small reduction; HLA-DR on classical monocytes (PBMCs [3]; final study visit (d28), 1000 mg/day oral): less
